Laboratory results taken from patent US11826403B2, “Target for diabetes treatment and prevention” (UNIVERSITE DE STRASBOURG, priority 2014, dated 2023).

Key:
[1] = tested on: mature adipocytes; assay: 2-NBDG glucose absorption in mature adipocytes infected with min-αPKC lentiviral particles; assay type: cell-based, human; details: n=8 per group
Procedure: Cell culture. Human white visceral preadipocytes (Catalog #: C-12732; PromoCell) and human mesenchymal stem cells (Catalog #: C-12974; PromoCell) derived from healthy bone marrow were purchased. The preadipocytes were seeded according to manufacturer's protocol and cultured in the Preadipocyte growth medium (Catalog #: C-27410; PromoCell) to confluence. One day before inducing terminal adipogenesis, the cells were infected with specific lentiviral particles consisted of a pool of 3 shRNAs target-specific constructs purchased from Santa Cruz Biotechnology and on the next day, adipogenic differentiation was induced by changing the medium to the Preadipocyte Differentiation Medium (Catalog #: C-27436; PromoCell) for 2 days. After the differentiation phase, the medium was finally changed to the Adipocyte Nutrition medium (Catalog #: C-27438; PromoCell). For the culture without insulin, Adipocyte Basal Medium (Catalog #: C-2431; PromoCell) without insulin was complemented with 5 g/L of deoxyglucose, 8 μg/mL d-Biotin, 400 ng/mL Dexamethasone. For the hMSCs, they were cultured in Mesenchymal Stem Cell Growth Medium (Catalog #: C-28010; PromoCell) to confluence. hMSCs were transfected with specific siRNAs as described above and on the next day adipogenic differentiation was induced by changing the medium to the MSC Adipogenic Differentiation Medium (Catalog #: C28011; Promocell). […]

[2] = tested on: human mature adipocytes; assay: 2-NBDG absorption in control and ALMS1-silenced mature adipocytes; assay type: cell-based; details: for 2-NBDG absorption: ALMS1-silenced adipocytes, 30 min stimulation
Procedure: Cell culture. Human white visceral preadipocytes (Catalog #: C-12732; PromoCell) and human mesenchymal stem cells (Catalog #: C-12974; PromoCell) derived from healthy bone marrow were purchased. The preadipocytes were seeded according to manufacturer's protocol and cultured in the Preadipocyte growth medium (Catalog #: C-27410; PromoCell) to confluence. One day before inducing terminal adipogenesis, the cells were infected with specific lentiviral particles consisted of a pool of 3 shRNAs target-specific constructs purchased from Santa Cruz Biotechnology and on the next day, adipogenic differentiation was induced by changing the medium to the Preadipocyte Differentiation Medium (Catalog #: C-27436; PromoCell) for 2 days. After the differentiation phase, the medium was finally changed to the Adipocyte Nutrition medium (Catalog #: C-27438; PromoCell). For the culture without insulin, Adipocyte Basal Medium (Catalog #: C-2431; PromoCell) without insulin was complemented with 5 g/L of deoxyglucose, 8 μg/mL d-Biotin, 400 ng/mL Dexamethasone. For the hMSCs, they were cultured in Mesenchymal Stem Cell Growth Medium (Catalog #: C-28010; PromoCell) to confluence. hMSCs were transfected with specific siRNAs as described above and on the next day adipogenic differentiation was induced by changing the medium to the MSC Adipogenic Differentiation Medium (Catalog #: C28011; Promocell).
Following ALMS1 silencing in 2-week-old mature adipocytes, glucose absorption capacity was assessed using labelled glucose analogue (2-NBDG). In the absence of insulin stimulation, no 2-NBDG uptake could be detected in ALMS1-silenced and control mature adipocytes (FIG. 2A). […] Further to reduced glucose absorption in ALMS1-silenced adipocytes, the inventors observed a reduction in intracellular triglycerides (TG) in these cells a week later (FIGS. 2C-D). […]

[3] = tested on: human mature adipocytes; assay: Acridine orange acidification of adipocytes (time lapse); assay type: cell-based
Text: While AKT-phosphorylation of TBC1D4 has been known to in some way lead to GLUT4 trafficking, the ultimate GSV-PM fusion step is an insulin regulated non-AKT dependent event that requires osmotic swelling of the GSVs under the action of the vATPase H^+ pump. However, knowledge of the actual signal and mechanism for activation of the H^+ pump by insulin was missing. The inventors tested if ALMS1 inactivation could prevent the acidification of the GSVs and therefore the chemo-osmotic-mediated release of GLUT4 to the PM using the acidotrophic dye, acridine orange, which emits a green fluorescence at low concentration and an orange-red fluorescence at high concentrations in the lysosomes in which acridine orange is protonated and sequestered. In absence of insulin, no orange-red fluorescence was detected in the adipocytes.
(§1) The inventors next tested whether acidifying ALMS1-silenced adipocytes using Nigericin (NIG.), an electroneutral K^+/H^+ exchange ionophore known to cause osmotic swelling of the GSVs would bypass the Alms1-associated defect in GLUT4 fusion and glucose absorption.

[4] = tested on: human mature adipocytes; assay: Electron microscopy of vesicle swelling and fusion with the plasma membrane; assay type: cell-based
Text: as §1

[5] = tested on: ALMS1-silenced adipocytes; assay: Immunodetection of GLUT4 / TBC1D4 at the plasma membrane in ALMS1-silenced adipocytes; assay type: cell-based, human; details: NIG-treated ALMS1-silenced adipocytes
Procedure: Western blots and immunofluorescence microscopy. Male Alms1^foz/foz and WT littermates were anaesthetized. The following insulin sensitive tissues: liver, heart, muscle and adipose tissue were harvested and directly placed in RIPA buffer (Tris 50 mM, NaCl 150 mM, 0.1% SDS, 1% Triton-X100) supplemented with Complete mini protease inhibitor cocktail and PhosSTOP phosphatase inhibitor cocktail (Roche, Switzerland). Samples were sonicated and centrifuged […] at 17 000 g, 4° C. […]. Protein concentration assayed with BCA assay (Thermo Fisher Scientific, USA). Cellular proteins from cells were obtained by trichloroacetic acid precipitation and immunoblot analyses were performed using 30-50 μg total protein. Specific antibody binding was visualized using the SuperSignal® West Femto Maximum Sensitivity Substrate (catalog #: Lf145954, Pierce) on a BioRad Versadoc™ Imaging System or ImageQuant LAS 4000 imager (GE Healthcare, UK). Nonspecific proteins stained with Ponceau S were used as loading controls to normalize the signal obtained after specific immunodetection of the protein of interest using the Bio-Rad Quantity One program. For immunofluorescence experiments, the cells were seeded on permanox 8-wells Lab-Tek II Chamber Slide (Catalog #: 177445; NUNC). Cells were treated as indicated. […]

[6] = tested on: ALMS1-silenced adipocytes; assay: Intracellular triglyceride (TG) filling of ALMS1-silenced adipocytes; assay type: cell-based, human; details: 24-hours post NIG treatment
Procedure: Fluorescence measurement. The preadipocytes were cultured in a 96 well plate and 12 wells infected with the either ALMS1 shRNA lentiviral particles or CTRL shRNA lentiviral particles and differentiated the next day into mature adipocytes. 3 weeks later, the intracellular triglycerides were stained with AdipoRed staining following the manufacturer's procedure and the fluorescence was measured on a Tecan Infinite 200 quad4 monochromator (Tecan, Lyon, France) at a wavelength of 520 nm. The generated data were then analyzed using the Tecan Magellan Data Analysis software using as blank unstained adipocytes. The inventors next tested whether acidifying ALMS1-silenced adipocytes using Nigericin (NIG.), an electroneutral K^+/H^+ exchange ionophore known to cause osmotic swelling of the GSVs would bypass the Alms1-associated defect in GLUT4 fusion and glucose absorption.

[7] = tested on: Alms1foz/foz mice; assay: Insulin tolerance test (ITT) in Alms1foz/foz mice; assay type: in vivo, mouse
Text: Six month old obese and young (<60 days old) nonobese Alms1^foz/foz mice and wildtype (WT) littermates were used to investigate what primary metabolic impairment leads Alms1^foz/foz mice to develop T2DM. Six month old Alms1^foz/foz mice were obese with an average body weight of 45.5 g±1.7 g compared to 26.4 g±1.3 g for WT littermates (FIG. 1A) and as previously shown had fasting hyperglycaemia and impaired glucose tolerance with elevated HOMA scores. […] (FIG. 1C). Obesity of Alms1^foz/foz mice was due to severe adipocyte hypertrophy (FIG. 1B) rather than the adipocyte hyperplasia more typically seen in obese BBS mice. To determine what the primary defect was that was causing the glucose intolerance in Alms1^foz/foz mice, young lean Alms1^foz/foz mice were studied to remove the confounding effect of obesity on insulin responsiveness. […]
Biochemical tests. […] Tail blood was obtained and the plasma glucose was determined for each mouse using a glucometer (Optium Xceed, Abbott, USA) and blood glucose test strips (Optium point of care, Abbott, USA) at 0, 15, 30 and 60 min after insulin injection. […] Plasma glucose was determined for each mouse using a glucometer with sampling via tail vein at 0, 15, 30, 60 and 120 min after glucose injection. […] The homeostasis model assessment of insulin resistance (HOMA-IR) index was calculated using individual mouse fasting insulin and fasting glucose levels. […]

[8] = control human mature adipocytes

Row | Molecule | 2-NBDG absorption, increase compare to control ([1]; absence of INS, control lentiviral particles as comparator) | 2-NBDG absorption versus control ([1]; presence of INS) | 2-NBDG absorption [2] | acidification (acridine orange orange-red fluorescence) ([3]; ALMS1-silenced adipocytes) | acidification (acridine orange orange-red fluorescence) [3, 8] | vesicular swelling and fusion with the PM ([4]; ALMS1-silenced adipocytes) | vesicular swelling and fusion with the PM ([4]; control adipocytes) | GLUT4 fusion with the PM [5] | TG-filling of adipocytes [6] | 2-NBDG uptake ([2]; control human mature adipocytes, insulin stimulation) | insulin responsiveness (ITT) ([7]; 2 months old nonobese Alms1foz/foz males) | glycaemia response to insulin administration (ITT) ([7]; six month old obese Alms1foz/foz mice, doses as high as 20 U/kg)
1 | min-αPKC-FLAG: minimum ALMS1-interacting domain of αPKC (SEQ ID NOs: 14 and 15) with Flag-TAG, expressed from a lentiviral vector | 3.5 times | no significant difference |  |  |  |  |  |  |  |  |  | 
2 | CO[C@@H]1C[C@@H](C[C@H]2CC[C@H](C)[C@H]([C@@H](C)C(=O)O)O2)O[C@]2(O[C@](C)([C@H]3CC[C@@](C)([C@@H]4O[C@@H]([C@H]5O[C@@](O)(CO)[C@H](C)C[C@@H]5C)C[C@@H]4C)O3)C[C@H]2C)[C@@H]1C [Nigericin] |  |  | restore 2-NBDG absorption in the ALMS1-silenced adipocytes to levels seen in control cells | rapid acidification | rapid acidification | induced vesicular swelling and fusion with the PM | induced vesicular swelling and fusion with the PM | restored GLUT4 fusion with the PM | restoration of TG-filling |  |  | 
3 | insulin |  |  | little effect | loss of insulin-mediated acidification | rapid appearance of red color | not in ALMS1-silenced adipocytes | swelling of the vesicles |  |  | increased 2-NBDG uptake | significantly reduced insulin responsiveness | unresponsive
